Data reported in PubChem BioAssay AID256 (DTP/NCI, 2004).
“And” between values parts separate entries of the source, which are not always exact repeats. Equal entries are not always repeated. Toxic doses and inconclusive results are not listed.

Test system: CD2F1 mice, L1210 leukemia ip, survival T/C
Test: NCI In Vivo Anticancer Drug Screen. Data for tumor model L1210 Leukemia (intraperitoneal) in CD2F1 (CDF1) mice
Settings: endpoint: mean survival time, higher = longer survival
In short: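 Compound-dosed mice with transplantable tumor versus matched vehicle controls; endpoint ratio T/C reported.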

[1] = dose: 100.0 mg/kg/injection, schedule: Q01DX001 (ip), vehicle: saline with Tween-80

**Q.** For O=c1[nH]c(=S)c(SCc2ccccc2)nn1C1OC(CO)C(O)C1O (stereo not given), which T/C (dose: 12.5 mg/kg/injection, schedule: Q01DX005 (ip), vehicle: distilled water + Tween-80) is on record?
**A.** The T/C was 95 % of control.

**Q.** What about the T/C (dose: 25.0 mg/kg/injection, schedule: Q01DX005 (ip), vehicle: distilled water + Tween-80) of the same compound?
**A.** Its T/C is 97 % of control.

**Q.** And the T/C (dose: 50.0 mg/kg/injection, schedule: Q01DX005 (ip), vehicle: distilled water + Tween-80)?
**A.** Its T/C is 100 % of control.

**Q.** What about the T/C (dose: 100.0 mg/kg/injection, schedule: Q01DX005 (ip), vehicle: distilled water + Tween-80) of the same compound?
**A.** Its T/C is 95 % of control.

**Q.** What about the T/C (dose: 200.0 mg/kg/injection, schedule: Q01DX005 (ip), vehicle: distilled water + Tween-80) of the same compound?
**A.** The T/C was 94 % of control.

**Q.** What does the source list for O=P1(N(CCCl)CCCl)NCCC2(O1)C1CC3CC(C1)CC2C3 (stereo not given)?
**A.** T/C (dose: 15.6 mg/kg/injection, schedule: Q01DX001 (ip), vehicle: distilled water + Tween-80): 97 % of control; T/C (dose: 31.3 mg/kg/injection, schedule: Q01DX001 (ip), vehicle: distilled water + Tween-80): 96 % of control; T/C (dose: 62.5 mg/kg/injection, schedule: Q01DX001 (ip), vehicle: distilled water + Tween-80): 99 % of control; T/C (dose: 125.0 mg/kg/injection, schedule: Q01DX001 (ip), vehicle: distilled water + Tween-80): 86 % of control; T/C (dose: 500.0 mg/kg/injection, schedule: Q01DX001 (ip), vehicle: distilled water + Tween-80): 86 % of control

**Q.** Which T/C (dose: 100.0 mg/kg/injection, schedule: Q04DX003 (ip), vehicle: saline sonified) does the source give for CCCC(CCC)=NCCN=C(CCC)CCC here?
**A.** Its T/C is 97 % of control.

**Q.** And the T/C (dose: 200.0 mg/kg/injection, schedule: Q04DX003 (ip), vehicle: saline sonified)?
**A.** The T/C was 97 % of control.

**Q.** And the T/C (dose: 400.0 mg/kg/injection, schedule: Q04DX003 (ip), vehicle: saline sonified)?
**A.** Its T/C is 97 % of control.

**Q.** What does the source list for CC(=NCc1ccccc1)C(C)(O)c1ccccc1 (stereo not given)?
**A.** T/C (dose: 100.0 mg/kg/injection, schedule: Q01DX001 (ip), vehicle: saline): 107 % of control; T/C (dose: 200.0 mg/kg/injection, schedule: Q01DX001 (ip), vehicle: saline): 101 % of control; T/C (dose: 400.0 mg/kg/injection, schedule: Q01DX001 (ip), vehicle: saline): 96 % of control

**Q.** Which results are given for NC(=O)CNC1=C(N2CC2)C(=O)C(NCC(N)=O)=C(N2CC2)C1=O?
**A.** T/C (dose: 5.0 mg/kg/injection, schedule: Q01DX009 (ip), vehicle: saline): 172 % of control; T/C (dose: 10.0 mg/kg/injection, schedule: Q01DX009 (ip), vehicle: saline): 180 % of control and 192 % of control; T/C (dose: 15.0 mg/kg/injection, schedule: Q01DX009 (ip), vehicle: saline): 91 % of control

**Q.** For C/C=C1/OC(n2cnc3c(N)ncnc32)C(O)C1O (stereo not given), which T/C (dose: 10.0 mg/kg/injection, schedule: Q01DX005 (ip), vehicle: distilled water + Tween-80) is on record?
**A.** The T/C was 103 % of control.

**Q.** What about the T/C (dose: 20.0 mg/kg/injection, schedule: Q01DX005 (ip), vehicle: distilled water + Tween-80) of the same compound?
**A.** Its T/C is 107 % of control.

**Q.** And the T/C (dose: 40.0 mg/kg/injection, schedule: Q01DX005 (ip), vehicle: distilled water + Tween-80)?
**A.** The T/C was 95 % of control.

**Q.** What about the T/C (dose: 80.0 mg/kg/injection, schedule: Q01DX005 (ip), vehicle: distilled water + Tween-80) of the same compound?
**A.** Its T/C is 100 % of control.

**Q.** And the T/C (dose: 160.0 mg/kg/injection, schedule: Q01DX005 (ip), vehicle: distilled water + Tween-80)?
**A.** The T/C was 97 % of control.

**Q.** How did the T/C (dose: 100.0 mg/kg/injection, schedule: Q01DX009 (ip), vehicle: saline with Tween-80) turn out when NS(=O)(=O)c1ccc(NC(=S)NC(=O)c2cccc3ccccc23)cc1 was run?
**A.** The T/C was 93 % of control.

**Q.** And the T/C (dose: 200.0 mg/kg/injection, schedule: Q01DX009 (ip), vehicle: saline with Tween-80)?
**A.** Its T/C is 93 % of control.

**Q.** And the T/C (dose: 400.0 mg/kg/injection, schedule: Q01DX009 (ip), vehicle: saline with Tween-80)?
**A.** The T/C was 93 % of control.

**Q.** Which results are given for Clc1ccc(C2c3ccccc3C[n+]3ccccc32)cc1 (stereo not given)?
**A.** T/C (dose: 12.5 mg/kg/injection, schedule: Q04DX003 (ip), vehicle: Klucel (hydroxypropylcellulose) (HPC)): 93 % of control; T/C (dose: 25.0 mg/kg/injection, schedule: Q04DX003 (ip), vehicle: Klucel (hydroxypropylcellulose) (HPC)): 93 % of control

**Q.** For CC(C)(O)CCC(C)(O)C1CCC2C3CCC4CC(O)CCC4(C)C3CCC21C (stereo not given), which T/C [1] is on record?
**A.** Its T/C is 92 % of control.

**Q.** And the T/C (dose: 200.0 mg/kg/injection, schedule: Q01DX001 (ip), vehicle: saline with Tween-80)?
**A.** The T/C was 93 % of control.

**Q.** What about the T/C (dose: 400.0 mg/kg/injection, schedule: Q01DX001 (ip), vehicle: saline with Tween-80) of the same compound?
**A.** The T/C was 86 % of control.

**Q.** With CC(NC(=O)C(CSCc1ccccc1)NC(=O)OCc1ccccc1)C(=O)OCc1ccccc1 (stereo not given) as the compound, how does the T/C (dose: 100.0 mg/kg/injection, schedule: Q04DX003 (ip), vehicle: saline with Tween-80) read?
**A.** Its T/C is 96 % of control.

**Q.** And the T/C (dose: 200.0 mg/kg/injection, schedule: Q04DX003 (ip), vehicle: saline with Tween-80)?
**A.** The T/C was 98 % of control.

**Q.** And the T/C (dose: 400.0 mg/kg/injection, schedule: Q04DX003 (ip), vehicle: saline with Tween-80)?
**A.** The T/C was 93 % of control.

**Q.** For CC[N+]1(C2CCC3CCC2C3O)CCOCC1 (stereo not given), which T/C (dose: 25.0 mg/kg/injection, schedule: Q01DX009 (ip), vehicle: saline) is on record?
**A.** The T/C was 91 % of control.

**Q.** What about the T/C (dose: 25.0 mg/kg/injection, schedule: Q04DX003 (ip), vehicle: saline) of the same compound?
**A.** The T/C was 95 % of control.

**Q.** What about the T/C (dose: 50.0 mg/kg/injection, schedule: Q01DX009 (ip), vehicle: saline) of the same compound?
**A.** The T/C was 94 % of control.

**Q.** And the T/C (dose: 50.0 mg/kg/injection, schedule: Q04DX003 (ip), vehicle: saline)?
**A.** Its T/C is 97 % of control.

**Q.** And the T/C [1]?
**A.** Its T/C is 100 % of control.

**Q.** What about the T/C (dose: 100.0 mg/kg/injection, schedule: Q01DX009 (ip), vehicle: saline) of the same compound?
**A.** The T/C was 92 % of control.

**Q.** And the T/C (dose: 100.0 mg/kg/injection, schedule: Q04DX003 (ip), vehicle: saline)?
**A.** The T/C was 100 % of control.

**Q.** What does the source list for O=[N+]([O-])c1ccc(O/N=C(\CN2CCCC2)c2ccc(Cl)cc2)c([N+](=O)[O-])c1?
**A.** T/C (dose: 100.0 mg/kg/injection, schedule: Q01DX001 (ip), vehicle: Klucel (hydroxypropylcellulose) (HPC)): 90 % of control; T/C (dose: 200.0 mg/kg/injection, schedule: Q01DX001 (ip), vehicle: Klucel (hydroxypropylcellulose) (HPC)): 87 % of control; T/C (dose: 400.0 mg/kg/injection, schedule: Q01DX001 (ip), vehicle: Klucel (hydroxypropylcellulose) (HPC)): 98 % of control
